Measured values taken from publication PMC5053573, “Structure-Based Design of Tetrahydroisoquinoline-7-carboxamides as Selective Discoidin Domain Receptor 1 (DDR1) Inhibitors” (Journal of Medicinal Chemistry, 2016).

How the values were obtained:
Assay in all cases: biochemical
Conditions in all cases: read-out: %Ctrl @ 1000nM
AAK1 = AAK1 (Homo sapiens, UniProt Q2M2I8)
ABL1-phosphorylated = ABL1-phosphorylated (Homo sapiens, UniProt P00519)
ABL2 = ABL2 (Homo sapiens, UniProt P42684)
ACVR2B = ACVR2B (Homo sapiens, UniProt Q13705)
ANKK1 = ANKK1 (Homo sapiens, UniProt Q8NFD2)
ARK5 = biological target: T1, ARK5 (Homo sapiens, UniProt O60285)
T1 construct: gene NUAK1

BMPR1B = BMPR1B (Homo sapiens, UniProt O00238)
BMPR1B, sequence (O00238 whole entry): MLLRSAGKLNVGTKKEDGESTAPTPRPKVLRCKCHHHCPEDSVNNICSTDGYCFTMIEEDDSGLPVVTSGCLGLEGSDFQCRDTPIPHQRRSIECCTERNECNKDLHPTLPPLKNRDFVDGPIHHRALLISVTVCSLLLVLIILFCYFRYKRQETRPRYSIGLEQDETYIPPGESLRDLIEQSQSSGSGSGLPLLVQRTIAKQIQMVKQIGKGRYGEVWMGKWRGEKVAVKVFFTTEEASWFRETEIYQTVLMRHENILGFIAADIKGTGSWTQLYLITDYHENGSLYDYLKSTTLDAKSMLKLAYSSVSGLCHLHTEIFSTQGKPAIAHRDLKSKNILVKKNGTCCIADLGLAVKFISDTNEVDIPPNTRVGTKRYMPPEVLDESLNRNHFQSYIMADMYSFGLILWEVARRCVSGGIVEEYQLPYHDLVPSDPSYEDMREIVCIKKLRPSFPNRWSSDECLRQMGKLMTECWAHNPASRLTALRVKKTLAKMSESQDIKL

BRAF(V600E) = BRAF(V600E) (Homo sapiens, UniProt P15056, V600E)
DAPK2 = DAPK2 (Homo sapiens, UniProt Q9UIK4)
DAPK2, sequence (Q9UIK4 whole entry): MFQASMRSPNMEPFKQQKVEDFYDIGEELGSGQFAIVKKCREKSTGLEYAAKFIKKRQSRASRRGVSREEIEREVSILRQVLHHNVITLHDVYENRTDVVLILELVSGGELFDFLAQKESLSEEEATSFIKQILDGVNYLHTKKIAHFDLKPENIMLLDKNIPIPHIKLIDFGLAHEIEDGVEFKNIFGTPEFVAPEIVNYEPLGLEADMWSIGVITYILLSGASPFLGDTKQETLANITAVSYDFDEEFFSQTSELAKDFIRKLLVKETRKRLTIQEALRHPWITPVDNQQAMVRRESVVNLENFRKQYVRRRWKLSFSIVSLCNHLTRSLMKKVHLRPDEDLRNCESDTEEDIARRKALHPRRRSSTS

EPHA6 = EPHA6 (Homo sapiens, UniProt Q9UF33)
EPHA6, sequence (Q9UF33 whole entry): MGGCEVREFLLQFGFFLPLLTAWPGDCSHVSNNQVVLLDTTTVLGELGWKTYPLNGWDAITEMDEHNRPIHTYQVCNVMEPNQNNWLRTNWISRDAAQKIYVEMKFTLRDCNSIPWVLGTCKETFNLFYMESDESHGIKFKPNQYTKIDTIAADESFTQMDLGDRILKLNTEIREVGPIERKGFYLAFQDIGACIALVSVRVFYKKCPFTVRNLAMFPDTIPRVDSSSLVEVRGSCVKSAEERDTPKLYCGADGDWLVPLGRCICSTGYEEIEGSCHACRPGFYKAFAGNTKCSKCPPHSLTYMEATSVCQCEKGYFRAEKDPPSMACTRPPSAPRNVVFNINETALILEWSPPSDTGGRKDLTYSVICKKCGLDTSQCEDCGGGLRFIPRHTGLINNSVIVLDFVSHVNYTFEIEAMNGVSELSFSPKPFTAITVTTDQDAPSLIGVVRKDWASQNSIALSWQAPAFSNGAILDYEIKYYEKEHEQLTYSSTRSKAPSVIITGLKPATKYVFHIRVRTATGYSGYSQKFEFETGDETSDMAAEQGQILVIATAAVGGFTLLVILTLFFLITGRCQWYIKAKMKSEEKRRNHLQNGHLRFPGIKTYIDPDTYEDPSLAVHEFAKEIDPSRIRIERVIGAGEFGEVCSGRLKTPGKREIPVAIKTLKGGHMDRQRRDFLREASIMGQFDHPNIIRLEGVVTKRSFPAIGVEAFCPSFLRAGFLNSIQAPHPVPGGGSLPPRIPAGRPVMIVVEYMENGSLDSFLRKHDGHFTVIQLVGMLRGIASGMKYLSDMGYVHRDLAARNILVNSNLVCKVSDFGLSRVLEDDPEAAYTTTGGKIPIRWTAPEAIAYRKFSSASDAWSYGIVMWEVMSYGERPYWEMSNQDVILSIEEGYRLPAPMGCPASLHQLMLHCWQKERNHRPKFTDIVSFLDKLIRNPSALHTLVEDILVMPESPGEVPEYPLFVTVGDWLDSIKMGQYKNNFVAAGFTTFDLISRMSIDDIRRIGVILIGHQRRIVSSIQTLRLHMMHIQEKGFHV

EPHB4 = EPHB4 (Homo sapiens, UniProt P54760)
EPHB6 = EPHB6 (Homo sapiens, UniProt O15197)
GAK = GAK (Homo sapiens, UniProt O14976)
IKK-beta = biological target: T2, IKK-beta (Homo sapiens, UniProt O14920)
T2 construct: gene IKBKB

[1] = biological target: JAK1(JH1domain-catalytic) (Homo sapiens, UniProt P23458)
[2] = biological target: JAK2(JH1domain-catalytic) (Homo sapiens, UniProt O60674)
LOK = biological target: T3, LOK (Homo sapiens, UniProt O94804)
T3 construct: gene STK10
T3 sequence (O94804 whole entry): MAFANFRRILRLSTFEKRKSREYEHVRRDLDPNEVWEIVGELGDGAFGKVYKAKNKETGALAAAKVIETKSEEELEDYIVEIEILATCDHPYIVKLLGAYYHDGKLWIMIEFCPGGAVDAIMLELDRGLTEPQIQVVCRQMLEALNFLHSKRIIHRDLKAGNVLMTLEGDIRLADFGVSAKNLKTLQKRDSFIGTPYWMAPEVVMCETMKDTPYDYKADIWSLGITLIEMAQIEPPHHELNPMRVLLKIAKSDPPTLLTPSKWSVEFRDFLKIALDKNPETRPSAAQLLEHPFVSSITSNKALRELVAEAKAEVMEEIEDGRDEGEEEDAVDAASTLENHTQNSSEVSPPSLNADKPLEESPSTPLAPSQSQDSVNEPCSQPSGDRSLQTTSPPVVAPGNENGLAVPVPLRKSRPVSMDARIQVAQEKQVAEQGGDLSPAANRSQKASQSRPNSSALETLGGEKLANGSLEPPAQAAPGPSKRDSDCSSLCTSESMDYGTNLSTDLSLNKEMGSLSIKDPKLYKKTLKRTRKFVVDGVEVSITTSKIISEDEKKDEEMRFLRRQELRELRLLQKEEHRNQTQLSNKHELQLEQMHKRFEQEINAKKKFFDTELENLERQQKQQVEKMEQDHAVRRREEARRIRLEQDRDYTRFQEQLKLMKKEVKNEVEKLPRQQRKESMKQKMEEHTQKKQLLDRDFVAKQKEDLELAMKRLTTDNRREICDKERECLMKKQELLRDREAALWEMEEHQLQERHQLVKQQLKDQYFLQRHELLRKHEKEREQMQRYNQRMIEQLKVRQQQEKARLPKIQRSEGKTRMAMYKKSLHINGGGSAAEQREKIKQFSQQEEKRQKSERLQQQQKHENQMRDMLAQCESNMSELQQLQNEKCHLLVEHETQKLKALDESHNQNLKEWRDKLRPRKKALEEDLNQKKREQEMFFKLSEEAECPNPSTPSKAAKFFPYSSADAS

MAPKAPK2 = MAPKAPK2 (Homo sapiens, UniProt P49137)
MLK3 = biological target: T4, MLK3 (Homo sapiens, UniProt Q16584)
T4 construct: gene MAP3K11

MYLK2 = MYLK2 (Homo sapiens, UniProt Q9H1R3)
NEK1 = NEK1 (Homo sapiens, UniProt Q96PY6)
NEK1, sequence (Q96PY6 whole entry): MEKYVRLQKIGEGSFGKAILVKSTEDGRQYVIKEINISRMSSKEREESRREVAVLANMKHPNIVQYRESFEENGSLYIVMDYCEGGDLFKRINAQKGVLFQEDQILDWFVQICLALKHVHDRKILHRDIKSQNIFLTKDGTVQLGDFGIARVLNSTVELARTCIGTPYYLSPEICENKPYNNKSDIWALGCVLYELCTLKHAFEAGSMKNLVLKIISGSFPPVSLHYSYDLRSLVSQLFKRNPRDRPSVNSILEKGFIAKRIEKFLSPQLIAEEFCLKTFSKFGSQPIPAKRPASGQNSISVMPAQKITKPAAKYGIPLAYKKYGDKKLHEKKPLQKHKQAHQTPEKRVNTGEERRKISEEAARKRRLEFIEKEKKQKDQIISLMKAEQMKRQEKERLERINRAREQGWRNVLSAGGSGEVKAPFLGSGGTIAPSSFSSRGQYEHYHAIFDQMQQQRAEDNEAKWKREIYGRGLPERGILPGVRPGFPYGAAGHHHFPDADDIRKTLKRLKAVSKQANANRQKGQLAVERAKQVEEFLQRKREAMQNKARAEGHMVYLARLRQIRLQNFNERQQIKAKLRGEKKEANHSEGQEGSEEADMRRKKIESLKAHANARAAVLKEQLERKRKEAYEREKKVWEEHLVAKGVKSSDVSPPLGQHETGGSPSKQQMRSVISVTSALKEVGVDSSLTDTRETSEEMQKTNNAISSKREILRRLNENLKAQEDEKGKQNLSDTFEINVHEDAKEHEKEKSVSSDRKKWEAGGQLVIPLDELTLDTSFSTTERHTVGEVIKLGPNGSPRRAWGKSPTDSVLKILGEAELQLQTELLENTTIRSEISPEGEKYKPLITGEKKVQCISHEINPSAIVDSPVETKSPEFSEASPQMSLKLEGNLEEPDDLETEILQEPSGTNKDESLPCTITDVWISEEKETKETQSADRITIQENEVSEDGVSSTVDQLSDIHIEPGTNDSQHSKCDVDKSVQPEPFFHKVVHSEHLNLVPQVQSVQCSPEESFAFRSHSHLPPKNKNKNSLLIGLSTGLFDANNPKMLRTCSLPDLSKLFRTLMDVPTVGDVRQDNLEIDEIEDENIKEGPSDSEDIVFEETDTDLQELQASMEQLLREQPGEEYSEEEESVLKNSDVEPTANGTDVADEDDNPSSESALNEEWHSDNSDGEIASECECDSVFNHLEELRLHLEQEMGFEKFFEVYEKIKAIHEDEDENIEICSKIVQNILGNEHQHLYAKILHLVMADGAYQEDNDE

PAK7 = biological target: T5, PAK7 (Homo sapiens, UniProt Q9P286)
T5 construct: gene PAK5

PIP5K2C = biological target: T6, PIP5K2C (Homo sapiens, UniProt Q8TBX8)
T6 construct: gene PIP4K2C

PKAC-beta = biological target: T7, PKAC-beta (Homo sapiens, UniProt P22694)
T7 construct: gene PRKACB

PRKCE = PRKCE (Homo sapiens, UniProt Q02156)
PRKX = PRKX (Homo sapiens, UniProt P51817)
RIPK4 = RIPK4 (Homo sapiens, UniProt P57078)
RIPK4, sequence (P57078 whole entry): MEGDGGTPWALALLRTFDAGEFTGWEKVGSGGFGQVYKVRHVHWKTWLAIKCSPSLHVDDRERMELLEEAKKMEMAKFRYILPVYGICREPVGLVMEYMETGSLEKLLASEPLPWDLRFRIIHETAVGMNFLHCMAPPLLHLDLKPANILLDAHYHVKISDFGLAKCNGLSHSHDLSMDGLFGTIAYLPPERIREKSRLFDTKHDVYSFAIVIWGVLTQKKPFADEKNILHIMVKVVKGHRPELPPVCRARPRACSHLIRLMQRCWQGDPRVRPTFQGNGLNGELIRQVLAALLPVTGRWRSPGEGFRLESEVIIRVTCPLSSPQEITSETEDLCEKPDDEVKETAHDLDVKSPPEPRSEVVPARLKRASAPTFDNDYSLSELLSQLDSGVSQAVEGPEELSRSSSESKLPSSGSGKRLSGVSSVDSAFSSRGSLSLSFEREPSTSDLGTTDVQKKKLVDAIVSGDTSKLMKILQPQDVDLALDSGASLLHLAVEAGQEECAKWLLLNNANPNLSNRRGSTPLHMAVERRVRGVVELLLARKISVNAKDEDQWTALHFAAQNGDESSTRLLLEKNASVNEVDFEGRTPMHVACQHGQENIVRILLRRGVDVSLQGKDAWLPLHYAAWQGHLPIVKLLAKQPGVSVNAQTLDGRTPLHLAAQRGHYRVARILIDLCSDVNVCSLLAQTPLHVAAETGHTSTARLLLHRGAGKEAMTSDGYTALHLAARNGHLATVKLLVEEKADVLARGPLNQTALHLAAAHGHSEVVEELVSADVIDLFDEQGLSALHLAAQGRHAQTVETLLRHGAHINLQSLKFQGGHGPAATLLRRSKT

ROCK2 = ROCK2 (Homo sapiens, UniProt O75116)
ROS1 = ROS1 (Homo sapiens, UniProt P08922)
[3] = biological target: T8, RSK4(Kin.Dom.2-C-terminal) (Homo sapiens, UniProt Q9UK32)
T8 construct: gene RPS6KA6

SGK = biological target: T9, SGK (Homo sapiens, UniProt O00141)
T9 construct: gene SGK1

SGK2 = SGK2 (Homo sapiens, UniProt Q9HBY8)
SGK3 = SGK3 (Homo sapiens, UniProt Q96BR1)
TESK1 = TESK1 (Homo sapiens, UniProt Q15569)
p38-alpha = biological target: T10, p38-alpha (Homo sapiens, UniProt Q16539)
T10 construct: gene MAPK14

Cc1cn(-c2cc(NC(=O)c3ccc4c(c3)CN(c3cncnc3)C[C@@H]4C)cc(C(F)(F)F)c2)cn1 [Compound 6j]
remaining activity at 1 µM (AAK1): 77% | remaining activity at 1 µM (ABL1-phosphorylated): 80% | remaining activity at 1 µM (ABL2): 46% | remaining activity at 1 µM (ACVR2B): 93% | remaining activity at 1 µM (ANKK1): 63% | remaining activity at 1 µM (ARK5): 82% | remaining activity at 1 µM (BMPR1B): 100% | remaining activity at 1 µM (BRAF(V600E)): 100% | remaining activity at 1 µM (DAPK2): 94% | remaining activity at 1 µM (EPHA6): 58% | remaining activity at 1 µM (EPHB4): 76% | remaining activity at 1 µM (EPHB6): 100% | remaining activity at 1 µM (GAK): 95% | remaining activity at 1 µM (IKK-beta): 100% | remaining activity at 1 µM [1]: 100% | remaining activity at 1 µM [2]: 100% | remaining activity at 1 µM (LOK): 72% | remaining activity at 1 µM (MAPKAPK2): 100% | remaining activity at 1 µM (MLK3): 81% | remaining activity at 1 µM (MYLK2): 100% | remaining activity at 1 µM (NEK1): 100% | remaining activity at 1 µM (PAK7): 98% | remaining activity at 1 µM (PIP5K2C): 100% | remaining activity at 1 µM (PKAC-beta): 97% | remaining activity at 1 µM (PRKCE): 100% | remaining activity at 1 µM (PRKX): 96% | remaining activity at 1 µM (RIPK4): 100% | remaining activity at 1 µM (ROCK2): 96% | remaining activity at 1 µM (ROS1): 86% | remaining activity at 1 µM [3]: 74% | remaining activity at 1 µM (SGK): 100% | remaining activity at 1 µM (SGK2): 100% | remaining activity at 1 µM (SGK3): 100% | remaining activity at 1 µM (TESK1): 98% | remaining activity at 1 µM (p38-alpha): 62%
